Laboratory results as given in US4716150A, “Synthetic peptides and use thereof in preparing calmodulin antisera” (Vanderbilt University, priority 1985, dated 1987).

What was measured:
intact calmodulin [1] = assay: Injection of immunogen into laboratory rabbits to elicit antisera against calmodulin; assay type: in vivo; conditions: merely injecting calmodulin into laboratory rabbits
From the text: Using one of the rabbit antisera, we proceeded to test peptide segments encompasssing the entire calmodulin molecule to locate one or more immunoreactive sites in the protein. See Van Eldik, L. J. and Watterson D. M. "Reproducible Production of Antiserum against Vertebrate Calmodulin and Determination of the Immunoreactive Site" Journal of Biological Chemistry Volume 256 (9), pp. 4205-4210 (1981). Upon completion of these studies we proposed than an immunoreactive site of calmodulin is contained in an 18 residue region (residues 127-144) within the COOH-terminal domain of calmodulin.
However, although the minimal immunoreactive heptapeptide site of calmodulin met both of the above requirements, we were unable to produce anti-calmodulin sera when we injected laboratory rabbits with a synthetic heptapeptide corresponding to the immunoreactive site of the protein. […] Van Eldik, et al. "Elucidation of a Minimal Immunoreactive Site of Vertebrate Calmodulin" (cited above).

intact calmodulin [2] = conditions: cited from earlier work
anti-calmodulin serum = conditions: one antiserum; vertebrate calmodulin residues 137 to 143; cited from earlier work

Row | Substance | anti-calmodulin serum titer after injection (intact calmodulin [1]) | reactivity of the elicited antibodies (intact calmodulin [2]; antibodies from injected rabbits tested against synthetic heptapeptide and intact calmodulin) | antibody response in rabbits (immunogenicity) (intact calmodulin [2]; laboratory rabbits injected with synthetic heptapeptide) | immunoreactivity with anti-calmodulin serum compared with the entire protein (anti-calmodulin serum)
1 | calmodulin | inability to develop an anti-calmodulin serum of useful titer |  |  | 
2 | asparagine-tyrosine-glutamic acid-glutamic acid-phenylalanine-valine-glutamine [synthetic heptapeptide] |  | reacted with the synthetic heptapeptide but not with intact calmodulin | elicited an antibody response | as immunoreactive as the entire 148-residue protein
